Patent publication US20030215531A1, “Compositions and methods of use for extracts of Rutaceae plants” (priority 2000, published 2003)
Entries after “also recorded” stand apart in the source; their conditions may differ. Counter-ions that a name gives are not always drawn.

Experiments:
chicks = settings: previous research with this chick model (Watson et al., 1996, 1999); cited from earlier work
rats = experiment: formalin test in rats; assay type: in vivo
Text: The analgesic effects of the extracts of this invention were studied using the formalin test (Dubuisson, D., Dennis, S. G., “The formalin test: a quantitative study of the analgesic effects of morphine, meperidine, and brainstem stimulation in rats and cats,” Pain, 1977, 4, pp. 161-164), a commonly used animal model to study nociceptive processes and analgesic drug effects.
Male Holtzman rats weighing 150-175 g were obtained from Harlan Spraque Dawley (Indianapolis, Ind.) and housed under a 12:12 h light/dark cycle in individual stainless steel cages in a temperature and humidity controlled vivarium. Food and water were available ad libitum. In session one, the animals were allowed to acclimate to the colony room for two days and handled for an additional two days prior to conducting the experiment in order to reduce experimenter-related stress. In session two, animals were allowed to acclimate to the colony room for four days, handled for three days, and acclimated to the apparatus for two days prior to conducting the experiment in order to reduce experimenter-related stress. In both sessions, the animals were food-deprived for 12 h before administering the test articles.
A Plexiglas viewing chamber (30×30×30 cm) was used for data collection.
Naproxen was used as a reference. Samples were tested at a concentration of 100 mg/kg except Formulation J which was tested at 200 mg/kg.
In session one, 10 minutes before the formalin observation period, the formulations were delivered via gavage in a volume of 0.5 ml to obtain a minimum response interval of 30 min between the injection time and the second phase of the formalin response. In session two, formulations were delivered via gavage of 1 ml. Each animal received two formulation dosings before the tests: 70 and 10 minutes before the beginning of the formalin observation period in order to obtain a 90 and 30 min injection intervals before the second phase of the formalin response.
Immediately after administration of 0.05 ml of 2.5% formalin into the hindpaw, rats were placed into 30×30×30 cm Plexiglas observation chamber. The observation session lasted 50 min. A dependent measure was the amount of time in which the injected paw was 1) in a lift position and 2) licked, bitten or shaken across ten 5-min blocks. A composite pain score as a function of ten 5-min blocks was calculated according to the procedures of Watson et al. (Watson, G. S., Sufka, K. J., Coderre, T. J., “Optimal scoring strategies and weights for the formalin test in rats,” Pain, 1997, 70, pp. 53-58). Sample sizes were n=5-6 rats per group. […]
Data were screened for homogeneity of variance and analyzed using repeated measures analysis of variance (ANOVA) and Fisher's LSD procedures.

Q: For Cc1nnc2n1-c1ccc(Cl)cc1C(c1ccccc1)=NC2 [alprazolam], which “ED50 in attenuating separation-induced DVoc” value (“ED50” below) (chicks) is on record?
A: 0.19 mg/kg

Q: Which results are given for COc1ccc2cc([C@H](C)C(=O)O)ccc2c1 [Naproxen]?
A: effect on formalin-induced pain behaviors (CPS), in words (rats; session 1, 100 mg/kg by gavage 10 min before observation, 100 mg/kg): did not affect pain behaviors; effect on formalin-induced pain behaviors (CPS), in words (rats; session 1, 100 mg/kg by gavage 10 min before observation, listed as naproxen, 100 mg/kg): had no effect on pain; effect on formalin-induced pain behaviors (CPS), in words (rats; session 2, two gavage dosings 70 and 10 min before observation, Naproxen 100 mg, Formulation J 200 mg/kg, b186 prints 100 mg/kg): attenuated the second phase of the formalin response

Q: For CNC1=Nc2ccc(Cl)cc2C(c2ccccc2)=[N+]([O-])C1 [chlorodiazepoxide, chlordiazepoxide], which “ED50” value (chicks) is on record?
A: 3.75 mg/kg

Q: For COc1ccc2cc3[n+](cc2c1OC)CCc1cc2c(cc1-3)OCO2 [Formulation K, berberine HCl], which “effect on formalin-induced pain behaviors (CPS), in words” value (rats; session 1, 100 mg/kg by gavage 10 min before observation, HCl, 100 mg/kg) is on record?
A: attenuated pain-related behaviors during the second phase; also recorded: reduced pain during the fourth to the tenth time block

Q: Which “ED50” value (chicks) does the source give for O=C1Nc2ccc(Cl)cc2C(c2ccccc2Cl)=NC1O (stereo not shown) [lorazepam] here?
A: 0.34 mg/kg
